≈ marks a conversion by molar mass, not a printed value.
Test: Solubility in acidic water (pH 1.2) at 37° C. (Test Example 1)
Format: physicochemical
Settings: acidic water (pH 1.2) containing HCl, simulated gastric fluid, thermodynamic from solid, acidic water (pH 1.2) containing about 1N HCl, stirred 2 hours, filtered through 1 μm membrane, read-out: solubility of Cefditoren pivoxil in acidic water
Procedure: The solid particles present in the composition of this invention were tested for the measurement of their water-solubility as shown in Test Example given hereinafter.
There was taken as a sample one gram of the yellow-colored powder (the composition of this invention), which was obtained in Example 6 above, and which consisted essentially of the particles as formed substantially from a homogeneous mixture comprising the amorphous substance of Cefditoren pivoxil and hydroxypropylmethyl cellulose, and in which the surface layer of said particles contained additionally hydroxypropyl cellulose. The sample so taken was placed in 250 ml of an acidic water (pH 1.2) containing about […] at 37° C. and stirred at 37° C. for 2 hours. The resulting aqueous solution was passed through a millipore (1 μm) membrane filter to remove the insoluble solid therefrom. The transparent aqueous solution here obtained, which contained Cefditoren pivoxil and the water-soluble cellulose derivatives above-mentioned as dissolved therein, was then measured in respect of the concentration of the Cefditoren pivoxil. […]

solubility at 2 h: ~400 µg/mL (≈ 644 µM)
Structure (SMILES): CO/N=C(\C(=O)NC1C(=O)N2C(C(=O)OCOC(=O)C(C)(C)C)=C(/C=C\c3scnc3C)CS[C@H]12)c1csc(N)n1 (stereo partly shown) [7-[(Z)-2-(2-aminothiazol-4-yl)-2-methoxyiminoacetamido]-3-[(Z)-2-(4-methylthiazol-5-yl)ethenyl]-3-cephem-4-carboxylic acid pivaloyloxymethyl ester]
